This note sets out measurements from patent US9552457B2, “Reprogramming effector protein interactions to correct epigenetic defects in cancer” (BRITISH COLUMBIA CANCER AGENCY BRANCH, priority 2012, dated 2017).

For one experiment, the system named is MDA-MB-231. The experiment in a line: Viability of breast cancer cell lines, MDA-MB-231. Format: cell-based. To be noted: MDA-MB-231, in words. How it is done:
(§1) Compounds 50 and 51 were tested for their effect on the viability of four breast cancer cell lines in vitro using standard methods. The cell lines tested were: MCF-7, MDA-MB-231, HCC202 (CRL-2316) and HCC1500 (CRL-2329).

Experiment [1] has as its system WSU-DLCL2 human diffuse large cell lymphoma tumours. The experiment in a line: WSU-DLCL2 mouse xenograft model. The experiment is classed as in vivo. To be noted: intraperitoneal 4 mg/kg for 5 days then 2 mg/kg for 5 days, evaluation at day 12; p=0.0125. How it is done:
WSU-DLCL2 tumourfragments were transplanted subcutaneously into the flank of male NSG mice. Mice were 9.0-9.3 weeks at transplantation and treatment was started when the mice were between 12.9 and 13.1 weeks. 8 mice were used per group and treatment was daily for ten days with evaluation at day 12. Tumoursize determined by caliper every four days, tumourvolume calculated by length×width^2/2.
The groups of mice were treated with vehicle (control), 1 mg/kg Compound 50 or 4 mg/kg Compound 50 by intraperitoneal injection. Vehicle was 50% DMSO/50% PEG-400.
WSU-DLCL2 tumourfragments were transplanted subcutaneously into the flank of male NSG mice. Mice were 5.3-9.4 weeks at transplantation and treatment was started when the mice were between 8.6 and 12.7 weeks. 8 mice were used in the control group and 6 mice were used in the Compound 51 treated group. Treatment was daily for ten days with evaluation at day 12. Tumoursize determined by caliper every four days, tumourvolume calculated by length×width^2/2.
The groups of mice were treated with vehicle (control) or Compound 51 by intraperitoneal injection at 4 mg/kg for the first 5 days and 2 mg/kg for the subsequent 5 days. Vehicle was 50% DMSO/50% PEG-400.

Experiment [2] concerns DoHH2 Cells (wildtype for EZH2, MEF2B and MLL2). The experiment in a line: Cell viability of lymphoma cell lines, DoHH-2. Particulars: DoHH-2, in words. The experiment is classed as cell-based. How it is done: (§2) Compound 50 was tested for its effect on the viability of three lymphoma cell lines in vitro using standard methods. The cell lines tested were: DoHH-2 (wildtype for EZH2, MEF2B and MLL2); WSU-DLCL2 (EZH2 mutation Y641F (wildtype for MEF2B and MLL2)) and DB (EZH2 mutation Y641N, the MEF2B mutation D83V and three mutations in MLL2 (two of which lead to a truncated protein after residue Q2736 and the third allele has a 1 base pair deletion at residue P480)).
(§3) Compound 51 (NSC2540) was tested for its effect on the viability of four lymphoma cell lines in vitro using standard methods. The cell lines tested were DoHH-2, WSU-DLCL2, DB and SU-DHL-9 (EZH2 wildtype, MEF2B wildtype, MLL2 indel).

Another experiment has as its system HCC1500 (CRL-2329). The experiment in a line: Viability of breast cancer cell lines, HCC1500. Format: cell-based. Particulars: in words. How it is done: as §1
The test system of experiment [3] is WSU-DLCL2 Cells (EZH2 mutation Y641F). The experiment in a line: Cell viability of lymphoma cell lines, WSU-DLCL2. The experiment is classed as cell-based, human. To be noted: WSU-DLCL2, in words. As to the method: as §2, §3
The test system of experiment [4] is SU-DHL-9 (EZH2 wildtype, MEF2B wildtype, MLL2 indel). The experiment in a line: Cell viability of lymphoma cell lines, SU-DHL-9 (CBX2 compound). The experiment is classed as cell-based, human. Particulars: SU-DHL-9, in words. How it is done:
as §3

A further experiment deals with HCC202 (CRL-2316). The experiment in a line: Viability of breast cancer cell lines, HCC202. The experiment is classed as cell-based. Particulars: in words. As to the method: as §1

Each structure is given as a SMILES string.

Consider `OC(c1cc(-c2ccc(Cl)c(Cl)c2)nc2ccccc12)C1CCCCN1` (stereo not shown) [Compound 51], for which the effect on viability entry (in the experiment with MDA-MB-231; in experiment [2]; in the experiment with HCC1500 (CRL-2329); in experiment [3]; in experiment [4]; with HCC202 (CRL-2316)) was “able to decrease viability” throughout. For the same compound, in experiment [1], the “effect on tumour volume” value is “able to significantly reduce tumourvolume”.
